Experimental data taken from PubChem BioAssay AID1963971 (Molecular Pharmacology Branch, DTP, NCI, 2024).

System: 953936-095-R-J2-PDC spheroids with HUVEC/MSC, viability
Experiment: Anticancer human tumor 953936-095-R-J2-PDC patient-derived cervical squamous cell carcinoma cell line growth inhibition [PI3K]
Conditions: for IC50: curve of first compound; for viability, T/C: stronger effect = lower value
How it was run: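 Agents were dosed from a top concentration near clinical Cmax (otherwise 10 microM) in half-log decrements, alone or combined with PI3K inhibitors. The spheroids contain tumor cells plus endothelial (HUVEC) and MSC stroma; viability is measured.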
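Note: spheroids exposed to compounds for seven days before read-out.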

Compound: CCCS(=O)(=O)Nc1ccc(F)c(C(=O)c2c[nH]c3ncc(-c4ccc(Cl)cc4)cc23)c1F + COc1c(OCCCN2CCOCC2)ccc2c3n(c(=NC(=O)c4cnc(N)nc4)nc12)CCN3
- IC50 (second compound 0.00316 µM): 5.05 µM
- IC50 (second compound 0.01 µM): 4.63 µM
- IC50 (second compound 0.0316 µM): < 0.0316 µM
- IC50 (second compound 0.1 µM): < 0.0316 µM
- IC50 (second compound 0.316 µM): < 0.0316 µM
- IC50 (second compound 1 µM): < 0.0316 µM
- viability, T/C (second compound 0.00316 µM, first compound 0.0316 µM): 81.3%
- viability, T/C (second compound 0.00316 µM, first compound 0.1 µM): 94.1%
- viability, T/C (second compound 0.00316 µM, first compound 0.316 µM): 85.1%
- viability, T/C (second compound 0.00316 µM, first compound 1 µM): 93.1%
- viability, T/C (second compound 0.00316 µM, first compound 3.16 µM): 83.7%
- viability, T/C (second compound 0.00316 µM, first compound 10 µM): 0.64%
- viability, T/C (second compound 0.01 µM, first compound 0.0316 µM): 73.6%
- viability, T/C (second compound 0.01 µM, first compound 0.1 µM): 72.5%
- viability, T/C (second compound 0.01 µM, first compound 0.316 µM): 73.8%
- viability, T/C (second compound 0.01 µM, first compound 1 µM): 78.4%
- viability, T/C (second compound 0.01 µM, first compound 3.16 µM): 74.5%
- viability, T/C (second compound 0.01 µM, first compound 10 µM): 0.66%
- viability, T/C (second compound 0.0316 µM, first compound 0.0316 µM): 50.7%
- viability, T/C (second compound 0.0316 µM, first compound 0.1 µM): 46%
- viability, T/C (second compound 0.0316 µM, first compound 0.316 µM): 40.8%
- viability, T/C (second compound 0.0316 µM, first compound 1 µM): 45.7%
- viability, T/C (second compound 0.0316 µM, first compound 3.16 µM): 37.6%
- viability, T/C (second compound 0.0316 µM, first compound 10 µM): 2.52%
- viability, T/C (second compound 0.1 µM, first compound 0.0316 µM): 18.3%
- viability, T/C (second compound 0.1 µM, first compound 0.1 µM): 17.4%
- viability, T/C (second compound 0.1 µM, first compound 0.316 µM): 17.1%
- viability, T/C (second compound 0.1 µM, first compound 1 µM): 18.9%
- viability, T/C (second compound 0.1 µM, first compound 3.16 µM): 17.3%
- viability, T/C (second compound 0.1 µM, first compound 10 µM): 0.92%
- viability, T/C (second compound 0.316 µM, first compound 0.0316 µM): 7.34%
- viability, T/C (second compound 0.316 µM, first compound 0.1 µM): 5.95%
- viability, T/C (second compound 0.316 µM, first compound 0.316 µM): 6.85%
- viability, T/C (second compound 0.316 µM, first compound 1 µM): 7.94%
- viability, T/C (second compound 0.316 µM, first compound 3.16 µM): 7.74%
- viability, T/C (second compound 0.316 µM, first compound 10 µM): 1.13%
- viability, T/C (second compound 1 µM, first compound 0.0316 µM): 1.84%
- viability, T/C (second compound 1 µM, first compound 0.1 µM): 1.61%
- viability, T/C (second compound 1 µM, first compound 0.316 µM): 1.73%
- viability, T/C (second compound 1 µM, first compound 1 µM): 2.48%
- viability, T/C (second compound 1 µM, first compound 3.16 µM): 2.83%
- viability, T/C (second compound 1 µM, first compound 10 µM): 0.45%
